The text below walks through data of paper PMC7926980, “The Antiproliferative and Apoptotic Effect of a Novel Synthesized S-Triazine Dipeptide Series, and Toxicity Screening in Zebrafish Embryos” (Molecules, 2021).

The test system of data set [1] is MCF-7 cells. In words: MTT cell viability assay, MCF-7. The note with it: 72 h treatment. It counts as cell-based, human. The method, then:
(§1) The antiproliferative activity of the synthesized compounds was evaluated by the 3-(4,5-dimethylthiazol-2-yl)-2,5-diphenyl tetrazolium bromide (MTT) cell viability assay. Two types of breast cancer cell lines—namely MCF-7, which has estrogen and progesterone receptors, and MDA-MB-231, which is triple negative—were used, in addition to a colon cancer cell line (HCT-116).
(§2) The target products 3a–o were evaluated for their antiproliferative activity using the MTT viability assay of the MCF-7, MDA-MB-231 and HCT-116 cell lines (in triplicate) on at least three independent occasions for the determination of the reported mean values.
(§3) The three human tumor cell lines MCF-7, MDA-MB-231 and HCT-116 were cultured in Dulbecco’s Modified Eagle’s Medium (DMEM) with 10% fetal bovine serum, 2 mM L-glutamine and 100 µg/mL penicillin/streptomycin. The cells were maintained at 37 °C in 5% CO2 in a humidified incubator. All of the cells were sub-cultured 3 times/week by trypsinization using TrypLE Express (1×).
(§4) In order to calculate the relative IC50 values, the antiproliferative effect of compounds 3a–o was tested in three cancer cell lines (MCF-7, MDA-MB-231, HCT-116) and normal epithelial embryonic kidney cells (HEK-293) using the MTT viability assay. The cells were seeded in 96-well plates at a density of 10 × 10^3 cells/mL, in a total volume of 200 µL per well. In total, 0.1% DMSO was used as a vehicle control. […] The culture medium was then removed, and the cells were washed with phosphate-buffered saline (PBS), and 100 µL MTT was added (for a final concentration of 5 mg/mL MTT). The cells were incubated for 4 h in darkness at 37 °C. Next, 200 µL DMSO was added to each well, and the cells were maintained at room temperature in darkness for 20 min. The absorbance was detected with a microplate reader at 570 nm. The results were expressed as a percentage of viability relative to the vehicle control (100%). The dose-response curves were plotted, and the IC50 values were obtained using Prism software (GraphPad Software, Inc., La Jolla, CA, USA). All of the experiments were repeated in three independent experiments.

A further data set deals with MDA-MB-231 cells. Description: MTT cell viability assay, MDA-MB-231. The class given is cell-based. The note with it: Homo sapiens, 72 h treatment. The method, then: as §1, §2, §3, §4
The subject of the next data set is HCT-116 cells. In words: MTT cell viability assay, HCT-116. Conditions: Homo sapiens, 72 h treatment. The class given is cell-based. The procedure: as §1, §2, §3, §4
In data set [2] the test system is MCF-7 cells. In words: Cell cycle analysis by PI staining flow cytometry. It counts as cell-based, human. Conditions: 2 µM, 48 h. The method, then: The mechanism underlying the growth-inhibitory effect of 3a was further examined. The effect of 3a on cell cycle events in MCF-7 cells, after incubation at 2 µM for 48 h, was analyzed by a DNA flow cytometry assay of propidium iodide (PI) staining (Figure 4A). Compound 3a induced a statistically significant arrest of MCF-7 cells in the G2/M stage (36.8%) compared to the untreated cell line (11.5%) (Figure 4B).
The MCF-7 cells were treated with compound 3a (2 µM) and incubated for 48 h. After trypsinization, the cells were collected and centrifuged at 800× g for 15 min. They were then fixed in ice-cold 70% ethanol overnight at −20 °C. The fixed cells were centrifuged at 800× g for 15 min and stained with 50 μg/mL PI, containing 50 μg/mL DNase-free RNase A, at 37 °C for 30 min. The DNA content of the cells (10,000 cells) was analyzed by flow cytometer at 488 nm, using a FACSCalibur flow cytometer (BD Biosciences, San Jose, CA, USA).
Figure 4 (A) Effect of compound 3a on the cell cycle and apoptosis in breast cancer MCF-7 cells. The cells were treated with either a vehicle (0.1% ethanol (v/v)) or 3a (2 µM) for 48 h. The cell cycle analysis was performed on histograms of gated counts per DNA area (FL2-A). (B) Quantitative analysis of 4N (G2/M), 2N (G0G1), >2N (S) and <2N (sub-G1). The DNA content was determined with CellQuest software. […]

Data set [3] in a line: Zebrafish embryo mortality/toxicity. The class given is in vivo. The note with it: wild-type, in vivo; zebrafish embryos, overnight exposure, 0.5 to 1000 µM; mean of three biological replicates ± standard deviation. The procedure: (§5) The zebrafish embryos were obtained by natural pairwise breeding, and were treated essentially as described previously.
(§6) The compounds were dissolved in dimethylsulfoxide (DMSO) in order to prepare a stock concentration of 10 mM. The embryos treated with 0.10% DMSO (v/v) served as the negative controls.
(§7) The fish were kept following the national and international guidelines for the care and use of laboratory animals. The fertilized eggs were obtained by the natural pairwise breeding of adult fish. The approval of the Ethics Committee for the use and care of laboratory animals was not needed, as zebrafish larvae less than 5 days post fertilization were used.
(§8) A stock solution of 50 mM was prepared by dissolving the compounds in dimethyl sulfoxide (DMSO). At least 30 fertilized eggs were sorted and placed in 60-mm sterile glass Petri dishes. A serial dilution of the compounds was prepared by adding the required amount of the compound directly into 5 mL water, and the zebrafish embryos were then exposed to serial dilutions (0.5 to 1000 µM) of each compound overnight. The number of dead and living embryos were counted after the overnight exposure.

In a further data set the test system is zebrafish embryos. Description: Zebrafish embryo mortality/toxicity. It counts as in vivo. Conditions: maximum concentration tested 1 mM, versus DMSO control. The procedure: as §5, §6, §7, §8

Each structure is given as a SMILES string. Entries after “also recorded” stand apart in the source; their conditions may differ.

Turning to `COC(=O)CNC(=O)CNc1nc(Nc2ccccc2)nc(N2CCOCC2)n1` [Compound 3a, Methyl (4-morpholino-6-(phenylamino)-1,3,5-triazin-2-yl) glycylglycinate], the half-maximal inhibitory concentration (IC50) in the data set on MCF-7 cells [1] was 0.82 ± 0.37 µM; in the data set on MCF-7 cells [1] (Homo sapiens, MCF7, 72 h), less than 1 µM; in the data set on MDA-MB-231 cells, 9.36 ± 1.15 µM; in the data set with HCT-116 cells, 17.9 ± 3.74 µM. Also, the “cells in the sub-G1 phase” value in the data set with MCF-7 cells [2] (control 3.7%) is 17.3%. Further, the “MCF-7 cells in the G2/M stage” value in the data set on MCF-7 cells [2] (untreated 11.5%) is 36.8%. The LC50 in data set [3] is more than 1000 µM. Besides, in the data set with zebrafish embryos, the “toxicity / mortality in zebrafish embryos” value is recorded as “did not show any toxicity; also recorded: same mortality ratio as the control”.
